In patent US11186577B2, “Vasopressin receptor antagonists and products and methods related thereto” (BlackThorn Therapeutics, Inc., priority 2017, dated 2021) one finds IC50 data, which are given here for seven compounds.

Some results are limits rather than exact numbers.

In test [1] the target is human Arginine Vasopressin Receptor V2 (AVPR2) (Homo sapiens (Human), UniProt P30518). Put plainly: Vasopressin V2 receptor antagonist assay (cAMP TR-FRET, 1321N1 cells). The test is classed as cell-based.
The target of test [2] is human Arginine Vasopressin Receptor 1b (AVPR1b) (Homo sapiens (Human), UniProt P47901). Put plainly: Vasopressin V1B receptor antagonist assay (AVP-evoked calcium, FLIPR, CHO-AVPR1b cells). In kind it is cell-based. A digest of the protocol: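 CHO cells expressing human AVPR1b, loaded with Calcium-6 dye, were preincubated with compound for 15 min at 37 °C, then challenged with AVP at its daily-determined EC80. Calcium fluorescence was followed for 3 min on FLIPR; 10-point, 1:3 concentration curves gave antagonism as reduced AVP response.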
human Arginine Vasopressin Receptor 1b (AVPR1b), sequence (P47901 whole entry): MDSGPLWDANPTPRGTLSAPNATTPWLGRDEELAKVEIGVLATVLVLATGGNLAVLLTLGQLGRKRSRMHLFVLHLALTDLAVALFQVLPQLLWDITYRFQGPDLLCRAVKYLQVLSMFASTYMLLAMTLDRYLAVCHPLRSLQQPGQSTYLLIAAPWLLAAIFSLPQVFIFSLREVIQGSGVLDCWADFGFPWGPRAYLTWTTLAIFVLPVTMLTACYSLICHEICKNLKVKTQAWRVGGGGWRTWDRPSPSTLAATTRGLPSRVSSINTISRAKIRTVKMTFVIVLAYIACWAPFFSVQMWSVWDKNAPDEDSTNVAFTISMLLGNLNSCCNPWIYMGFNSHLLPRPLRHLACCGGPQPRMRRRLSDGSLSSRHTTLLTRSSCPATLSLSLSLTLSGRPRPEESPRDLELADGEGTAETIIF

human Arginine Vasopressin Receptor V2 (AVPR2), sequence (P30518 whole entry): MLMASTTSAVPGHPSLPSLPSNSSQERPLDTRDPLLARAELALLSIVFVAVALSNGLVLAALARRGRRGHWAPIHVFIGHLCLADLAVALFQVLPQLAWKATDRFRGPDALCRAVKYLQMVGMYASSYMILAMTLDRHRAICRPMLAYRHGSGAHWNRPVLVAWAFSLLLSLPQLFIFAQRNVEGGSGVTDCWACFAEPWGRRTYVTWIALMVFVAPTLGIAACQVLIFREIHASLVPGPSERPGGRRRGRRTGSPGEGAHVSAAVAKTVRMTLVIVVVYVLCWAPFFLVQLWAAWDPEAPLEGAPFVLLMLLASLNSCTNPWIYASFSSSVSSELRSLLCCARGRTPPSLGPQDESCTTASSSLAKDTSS

In the case of `CC1c2nnc(C3CC4(C3)CN(c3ncc(F)cn3)C4)n2-c2ccc(Cl)cc2CN1C(=O)OC1(C)CC1` (centres unmarked) [compound 173], the IC50 in test [1] and in test [2] was > 1 µM throughout.

As to `CC1c2nnc(C3CC4(C3)CN(c3ccc(F)cn3)C4)n2-c2ccc(Cl)cc2CN1C(=O)C1(F)CC1` (centres unmarked) [compound 174], the half-maximal inhibitory concentration (IC50) in test [1] and in test [2] was > 1 µM in each case.

With `CC1c2nnc(C3CC4(C3)CN(c3ncccn3)C4)n2-c2ccc(Cl)cc2CN1C(=O)C1(F)CC1` (centres unmarked) [compound 175], the IC50 in test [1] and in test [2] was > 1 µM each time.

Regarding `CC1c2nnc(C3CC4(C3)CN(c3cnccn3)C4)n2-c2ccc(Cl)cc2CN1C(=O)C1(F)CC1` (centres unmarked) [compound 177], the concentration for half-maximal inhibition (IC50) in test [1] and in test [2] was > 1 µM each time.

Turning to `COC(=O)N1Cc2cc(Cl)ccc2-n2c(C3CC4(C3)CN(c3cccc(C)n3)C4)nnc2C1C` (centres unmarked) [compound 180], the half-inhibitory concentration (IC50) in test [1] is 0.1 to 0.5 µM; in test [2], > 1 µM.

Consider `COC(=O)N1Cc2cc(Cl)ccc2-n2c(C3CC4(C3)CN(c3ncccc3F)C4)nnc2C1C` (centres unmarked) [compound 182], for which the IC50 in test [1] is 0.5 to 1 µM; in test [2], > 1 µM.

As to `CC1c2nnc(C3CC4(C3)CN(c3ncc(F)cn3)C4)n2-c2ccc(Cl)cc2CN1C(=O)OC(CF)CF` (centres unmarked) [compound 194], the 50% inhibitory concentration (IC50) in test [1] and in test [2] was > 1 µM throughout.
